Results published in PMC6152701, “Synthesis and Bioactivity Characterization of Scutellarein Sulfonated Derivative” (Molecules : A Journal of Synthetic Chemistry and Natural …, 2017).
≈ marks a conversion by molar mass, not a printed value. Where “and” joins values, the source holds several entries; their conditions need not be identical. Equal values may be shown once.

Legend:
[1] = Aqueous solubility by UV spectrophotometry; type: physicochemical
Description: Scutellarin (1) and scutellarein (2) (300 μg) were dissolved in 25 mL CH3OH, and 3 (300 μg) was dissolved in 25 mL water. […] Each tested compound (250 μg) was ultrasound dissolved in 10 mL pure water for 1 h at 25 °C, and the solutions were stood for 30 min before centrifuging at the speed of 30,000 r/min. Absorbances of each compound were obtained by UV scanning, and the aqueous solubility of all three compounds were obtained through analysis of the standard curve.

[2] = test system: Platelet-poor plasma (PPP), prothrombin time; experiment: Antithrombic assay: prothrombin time (PT); type: biochemical, New Zealand white rabbits; conditions: rabbit PPP, compound 100 μM, mean ± SD n = 4, blank plasma 5.03 ± 0.24
Text: (§1) According to our previous studies, the antithrombotic activity could be estimated by measuring the prolongation of the plasma clotting time of thrombin time (TT), activated partial thromboplastin time (APTT), international normalized ratio (INR) increase in prothrombin time (PT), and reduction in fibrinogen (FIB) content.
(§2) Male New Zealand white rabbits weighing 2–2.5 kg were obtained from the experimental animal center of Nanjing University of Chinese Medicine and were approved by Animal Ethics Committee of Nanjing University of Chinese Medicine. They were kept in plastic cages at 22 ± 2 °C with free access to pellet food and water and on a 12 h light/dark cycle. Animal welfare and experimental procedures were carried out in accordance with the guide for the care and use of laboratory animals (National Research Council of USA, 1996) and related ethical regulations of Nanjing University of Chinese Medicine. Rabbits were anesthetized with pentobarbital (50 mg/kg) and blood was drawn from the common carotid artery. Blood was collected into plastic tubes with 3.8% sodium citrate (citrate/blood: 1:9, v/v) for plasma anticoagulation. Platelet-poor plasma (PPP) was separated from blood by centrifugation at 3000 rpm for 10 min.
(§3) TT, APTT, PT, and FIB were tested with commercial kits following the manufacturer’s instructions by a coagulometer (Model LG-PABER-I, Steellex Co., Beijing, China). All the compounds were dissolved in PBS with 20% DMSO, and the concentration was 100 μM. TT was determined by incubating 40 μL PPP solution for 3 min at 37 °C, followed by addition of 40 μL thrombin solution and 20 μL sample for 3 min at 37 °C. APTT was determined by incubating 10 μL sample solution and 50 μL PPP solution with 50 μL APTT-activating agent for 3 min at 37 °C, followed by the addition of 50 μL CaCl2. PT was determined by incubating 40 μL PPP solution for 3 min at 37 °C, followed by the addition of 40 μL thromboplastin agent and 20 μL sample. FIB was determined by incubating 10 μL PPP solution with 90 μL imidazole buffer for 3 min at 37 °C, followed by addition of 50 μL FIB agent and 10 μL sample solution. By measuring the prolongation of the plasma clotting time of thrombin time (TT), activated partial thromboplastin time (APTT), INR increase in prothrombin time (PT), and reduction in fibrinogen (FIB) content, the antithrombotic activity was assessed.

[3] = test system: Platelet-poor plasma (PPP), activated partial thromboplastin time; experiment: Antithrombic assay: activated partial thromboplastin time (APTT); type: biochemical, New Zealand white rabbits; conditions: rabbit PPP, compound 100 μM, mean ± SD n = 4, blank plasma 29.83 ± 3.86
Text: as §1, §2, §3

[4] = test system: Platelet-poor plasma (PPP), fibrinogen; experiment: Antithrombic assay: fibrinogen (FIB) content; type: biochemical, New Zealand white rabbits; conditions: rabbit PPP, compound 100 μM, mean ± SD n = 4, blank plasma 7.23 ± 0.38
Text: as §1, §2, §3

[5] = test system: Platelet-poor plasma (PPP), thrombin time; experiment: Antithrombic assay: thrombin time (TT); type: biochemical, New Zealand white rabbits; conditions: rabbit PPP, compound 100 μM, mean ± SD n = 4, blank plasma 19.85 ± 1.59
Text: as §1, §2, §3

[6] = DPPH-radical scavenging ability assay; type: biochemical; conditions: DPPH 80 μmol/L in DMSO, 30 min in the dark
Description: Antioxidants play important roles in removing free radicals, as antioxidants provide hydrogen to free radicals and prohibit the adverse reactions from destroying normal tissues. This assay was measured according to previous studies.
The following method was adopted to evaluate the 1,1-diphenyl-2-picrylhydrazyl (DPPH) scavenging property of the products: scutellarin (1), scutellarein (2), and 3 were dissolved in DMSO to result in final concentrations ranging from 16 to 250 μmol/L, and then DPPH (80 μmol/L, 100 μL) dissolved in DMSO was added in the testing samples. After incubating for 30 min in the dark, the scavenging effect was calculated according to the following equation:Scavenging effect (%) = [(1 − (A1 − A2)/A0] × 100%(1) where A0 is the absorbance of the control (without extract), A1 is the absorbance in the presence of the extract, and A2 is the absorbance without DPPH.

[7] = design: method as in PMID 16997537; conditions: cited from earlier work

| SMILES | solubility at 1 h ([1]; 25 °C, water, thermodynamic from solid) | PT [2] | APTT [3] | FIB [4] | TT [5] | IC50 [6] | Solubility ([1]; in pure water, 25 °C, UV spectrophotometry) | aqueous solubility [7] | PT ([2]; listed as scutellarin (1)) | APTT ([3]; listed as scutellarin (1)) | FIB ([4]; listed as scutellarin (1)) | TT ([5]; listed as scutellarin (1)) | Solubility ([1]; 1 h) | PT ([2]; listed as scutellarein (2)) | APTT ([3]; listed as scutellarein (2)) | FIB ([4]; listed as scutellarein (2)) | TT ([5]; listed as scutellarein (2)) |
| --- | --- | --- | --- | --- | --- | --- | --- | --- | --- | --- | --- | --- | --- | --- | --- | --- | --- |
| O=c1cc(-c2ccc(O)cc2)oc2c(S(=O)(=O)O)c(O)c(O)c(O)c12 [compound 3, 5,6,7-Trihydroxy-2-(4-hydroxyphenyl)-4-oxo-4H-chromene-8-sulfonic acid] | 1950 µg/mL (≈ 5320 µM) | 6.33 s and 6.33 ± 1.87 s | 30.33 s and 30.33 ± 1.06 s | 7.01 g/L and 7.01 ± 0.96 g/L | 23.71 s and 23.71 ± 1.82 s | 16.8 µM |  |  |  |  |  |  |  |  |  |  |  |
| O=C(O)[C@H]1O[C@@H](Oc2cc3oc(-c4ccc(O)cc4)cc(=O)c3c(O)c2O)[C@H](O)[C@@H](O)[C@@H]1O [Scutellarin (1), 4′,5,6-trihydroxyflavone-7-glucuronide] |  | 6.25 ± 0.08 s | 33.78 ± 2.32 s | 6.41 ± 0.15 g/L | 23.25 ± 1.55 s | 17.9 µM | 7.62 µg/mL (≈ 16.5 µM) | 14.4 ± 0.17 µg/mL (≈ 31.1 µM) | 6.25 s | 33.78 s | 6.41 g/L | 23.25 s |  |  |  |  |  |
| O=c1cc(-c2ccc(O)cc2)oc2cc(O)c(O)c(O)c12 [Scutellarein (2), 5,6,7-Trihydroxy-2-(4-hydroxyphenyl)-4H-chromen-4-one] |  | 5.93 ± 0.81 s | 36.12 ± 2.20 s | 6.91 ± 0.12 g/L | 24.48 ± 1.18 s | 16.1 µM |  |  |  |  |  |  | 6.85 µg/mL (≈ 23.9 µM) | 5.93 s | 36.12 s | 6.91 g/L | 24.48 s |
